Patent US6673821B2, “Nitrogen heterocycle inhibitors of aspartyl protease” (Enanta Pharmaceuticals, Inc., priority 2001, dated 2004)

Target: HIV-1 protease (Human immunodeficiency virus type 1 group M subtype B, UniProt P04585)
Test: Biological assay for inhibition of microbial expressed viral protease (HIV-1 protease)
Type: biochemical
From the text: Insofar as compounds of the invention are able to inhibit the replication of the HIV virus in human T-cells and furthermore, may be delivered orally to mammals, they are of evident clinical utility for the treatment of HIV infection. These tests are predictive of the compounds ability to inhibit HIV protease in vivo. We have measured the inhibition constants of each compound against HIV-1 protease using essentially the method described by M. W. Pennington et al., Peptides 1990, Gimet, E. and D. Andrew, Eds., Escom; Leiden, Netherlands (1990).
Biological Assay for Inhibition of Microbial Expressed Viral Protease
The inhibition constants against HIV-1 protease were measured using the method described by M. V. Toth and G. R. Marshall, Int. J. Peptide protein Res., 1990, 544. The method described M. W. Pennington et al., Peptides 1990, Gimet, E. and D. Andrew, Eds., Escom; Leiden, Netherlands (1990) may also be used. Inhibition is measured as IC50 in μM. The person of skill would accept these tests as predictive of the compounds' utility in vivo to treat HIV infected patients.

Compound | IC50
CC(Oc1ccccc1)C(=O)NC(Cc1ccccc1)C(O)C1SCCN1S(=O)(=O)c1ccc(F)cc1 (stereo not shown) [EP-001164] | > 20 µM
CC(C)(C)OC(=O)NC(Cc1ccccc1)C(O)C1SCCN1S(=O)(=O)c1ccc(OC(F)(F)F)cc1 (stereo not shown) [EP-001155] | 5 to 20 µM
O=C(Cc1ccccc1)NC(Cc1ccccc1)C(O)C1SCCN1S(=O)(=O)c1ccc(F)cc1 (stereo not shown) [EP-001171] | > 20 µM
CC(C)(C)OC(=O)NC(Cc1ccccc1)C(O)C1SCCN1S(=O)(=O)c1cccc2cccnc12 (stereo not shown) [EP-001153] | 5 to 20 µM
CC(C)(C)OC(=O)NC(Cc1ccccc1)C(O)C1SCCN1S(=O)(=O)c1ccccc1 (stereo not shown) [EP-001156] | < 5 µM
O=C(COc1cccc2ccccc12)NC(Cc1ccccc1)C(O)C1SCCN1S(=O)(=O)c1ccc(F)cc1 (stereo not shown) [EP-001165] | > 20 µM
Cc1c(O)cccc1C(=O)NC(Cc1ccccc1)C(O)C1SCCN1S(=O)(=O)c1ccc(N)cc1 (stereo not shown) [EP-001195] | < 5 µM
O=C(COc1ccc2ccccc2c1)NC(Cc1ccccc1)C(O)C1SCCN1S(=O)(=O)c1ccc(F)cc1 (stereo not shown) [EP-001166] | > 20 µM
O=C(NC(Cc1ccccc1)C(O)C1SCCN1S(=O)(=O)c1ccc(F)cc1)OC1CCOC1 (stereo not shown) [EP-001169] | < 5 µM
O=C(COc1ccccc1)NC(Cc1ccccc1)C(O)C1SCCN1S(=O)(=O)c1ccc(F)cc1 (stereo not shown) [EP-001163] | > 20 µM
CC(C)(C)OC(=O)NC(Cc1ccccc1)C(O)C1SCCN1S(=O)(=O)c1ccc(N)cc1 (stereo not shown) [EP-001172] | < 5 µM
CC(C)c1ccc(S(=O)(=O)N2CCSC2C(O)C(Cc2ccccc2)NC(=O)OC(C)(C)C)cc1 (stereo not shown) [EP-001159] | 5 to 20 µM
Cc1c(O)cccc1C(=O)NC(Cc1ccccc1)C(O)C1SCCN1S(=O)(=O)c1ccc(F)cc1 (stereo not shown) [EP-001161] | < 5 µM
COCCOC(=O)NC(Cc1ccccc1)C(O)C1SCCN1S(=O)(=O)c1ccc(F)cc1 (stereo not shown) [EP-001184] | < 5 µM
CC(C)(C)OC(=O)NC(Cc1ccccc1)C(O)C1SCCN1S(=O)(=O)c1ccc([N+](=O)[O-])cc1 (stereo not shown) [EP-001157] | < 5 µM
Cc1cccc(C)c1OCC(=O)NC(Cc1ccccc1)C(O)C1SCCN1S(=O)(=O)c1ccc(F)cc1 (stereo not shown) [EP-001162] | < 5 µM
